Literature values as cited in patent publication US9890223B2, “Resin particles and process for producing same, antiglare film, light-diffusing resin composition, and external preparation” (SEKISUI PLASTICS CO., LTD., priority 2010, dated 2018).

details: 20° C.

Compound | Solubility in Water
C=C(C)C(=O)OCC(C)C [Isobutyl methacrylate] | 0.04 % by weight
C=C(C)C(=O)OCCCCCCCCCCCC [Lauryl methacrylate] | 0.01 or less % by weight
C=C(C)C(=O)OC [Methyl methacrylate] | 1.72 % by weight
C=C(C)C(=O)OCCCC [n-butyl methacrylate] | 0.04 % by weight
C=C(C)C(=O)OC(C)(C)C [tert-butyl methyacrylate] | 0.05 % by weight
